Data as given in paper PMC6779870, “Structural analysis of fungal pathogenicity-related casein kinase α subunit, Cka1, in the human fungal pathogen Cryptococcus neoformans” (Scientific Reports, 2019).
pKd: −log10 of the molar value.

Target: T1, cnCka1 (Cryptococcus neoformans CK2α orthologue, Cka1) (Cryptococcus neoformans, UniProt J9VNH4)
T1 construct: gene CNAG_05694; full-length, Met1–Pro338 (His6-TRX fusion in SPR; tag removed for crystal)
Test: SPR (Biacore […]) and crystal structure at […] Å; also ADP-Glo kinase assay
Format: binding

T1 sequence (J9VNH4 entry or part of it): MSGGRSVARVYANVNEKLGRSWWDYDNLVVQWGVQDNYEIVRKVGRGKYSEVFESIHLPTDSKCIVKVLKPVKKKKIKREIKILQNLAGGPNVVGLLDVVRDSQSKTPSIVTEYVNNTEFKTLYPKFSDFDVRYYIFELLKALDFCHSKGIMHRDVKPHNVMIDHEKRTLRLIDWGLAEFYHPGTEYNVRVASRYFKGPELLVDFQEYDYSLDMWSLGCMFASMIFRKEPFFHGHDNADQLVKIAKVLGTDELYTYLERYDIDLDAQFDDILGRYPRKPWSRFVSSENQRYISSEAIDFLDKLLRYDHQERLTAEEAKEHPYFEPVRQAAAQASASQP

With `O=C(O)c1ccc2c(c1)nc(Nc1cccc(Cl)c1)c1ccncc12` [CX-4945, 5-(3-chlorophenylamino)benzo[c][2,6]naphthyridine-8-carboxylic acid] the pKd was 7.22.
